From PubChem BioAssay AID2060882 (Molecular Pharmacology Branch, DTP, NCI, 2025)

Test system: 898857-211-R-J1-PDC complex spheroids, growth % test/control
Experiment: Anticancer human tumor 898857-211-R-J1-PDC patient-derived melanoma cell line growth inhibition [RAS]
Conditions: for viability, T/C: stronger effect = lower value; active = viability on the fitted dose curve at most 10% of control; inactive = the rest
In short: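 Agents were tested in combination matrices in half-log decrements from a top concentration at or near clinical Cmax (10 microM if undetermined). Targets were multi-cell spheroids of tumour lines plus HUVEC and MSC stromal cells.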

[1] = curve of first compound, second compound 0.000949 µM
[2] = curve of first compound, second compound 0.003 µM
[3] = curve of first compound, second compound 0.00949 µM
[4] = curve of first compound, second compound 0.03 µM
[5] = curve of first compound, second compound 0.0949 µM
[6] = curve of first compound, second compound 0.3 µM
[7] = second compound 0.000949 µM, first compound 0.0316 µM
[8] = second compound 0.000949 µM, first compound 0.1 µM
[9] = second compound 0.000949 µM, first compound 0.316 µM
[10] = second compound 0.000949 µM, first compound 1 µM
[11] = second compound 0.003 µM, first compound 0.0316 µM
[12] = second compound 0.003 µM, first compound 0.1 µM
[13] = second compound 0.003 µM, first compound 0.316 µM
[14] = second compound 0.003 µM, first compound 1 µM
[15] = second compound 0.00949 µM, first compound 0.0316 µM
[16] = second compound 0.00949 µM, first compound 0.1 µM
[17] = second compound 0.00949 µM, first compound 0.316 µM
[18] = second compound 0.00949 µM, first compound 1 µM
[19] = second compound 0.03 µM, first compound 0.0316 µM
[20] = second compound 0.03 µM, first compound 0.1 µM
[21] = second compound 0.03 µM, first compound 0.316 µM
[22] = second compound 0.03 µM, first compound 1 µM
[23] = second compound 0.0949 µM, first compound 0.0316 µM
[24] = second compound 0.0949 µM, first compound 0.1 µM
[25] = second compound 0.0949 µM, first compound 0.316 µM
[26] = second compound 0.0949 µM, first compound 1 µM
[27] = second compound 0.3 µM, first compound 0.0316 µM
[28] = second compound 0.3 µM, first compound 0.1 µM
[29] = second compound 0.3 µM, first compound 0.316 µM
[30] = second compound 0.3 µM, first compound 1 µM
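Note: spheroids exposed to compound for seven days before readout.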
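Throughout, for viability, T/C: 100% = DMSO vehicle control wells.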

O=C(c1ccc(F)c(F)c1Nc1ccc(I)cc1F)N1CC(O)([C@@H]2CCCCN2)C1 + CCn1c(-c2cc(N3CCN(C)CC3)cnc2C(C)OC)c2c3cc(ccc31)-c1csc(n1)CC(NC(=O)C1CC1C)C(=O)N1CCCC(N1)C(=O)OCC(C)(C)C2
inactive: viability, T/C (second compound 0.000949 µM, first compound 0.00316 µM) 39.8% | viability, T/C (second compound 0.000949 µM, first compound 0.01 µM) 24.2% | viability, T/C [7] 16.8% | viability, T/C [8] 13.9% | viability, T/C [9] 13% | viability, T/C [10] 9.63% | viability, T/C (second compound 0.003 µM, first compound 0.00316 µM) 33.1% | viability, T/C (second compound 0.003 µM, first compound 0.01 µM) 21.3% | viability, T/C [11] 17.5% | viability, T/C [12] 12.4% | viability, T/C (second compound 0.00949 µM, first compound 0.00316 µM) 32% | viability, T/C (second compound 0.00949 µM, first compound 0.01 µM) 20.5% | viability, T/C [15] 17.8% | viability, T/C [16] 14.2% | viability, T/C (second compound 0.03 µM, first compound 0.00316 µM) 24.2% | viability, T/C (second compound 0.03 µM, first compound 0.01 µM) 20.7% | viability, T/C [19] 17.8% | viability, T/C [20] 12.8% | viability, T/C (second compound 0.0949 µM, first compound 0.00316 µM) 24.6% | viability, T/C (second compound 0.0949 µM, first compound 0.01 µM) 20.2% | viability, T/C [23] 14.7% | viability, T/C (second compound 0.3 µM, first compound 0.00316 µM) 24.1% | viability, T/C (second compound 0.3 µM, first compound 0.01 µM) 19.1% | viability, T/C [27] 13.3%
< 3.16 nM: IC50 [1] | IC50 [2] | IC50 [3] | IC50 [4] | IC50 [5] | IC50 [6]
active: viability, T/C [13] 10.3% | viability, T/C [14] 6.63% | viability, T/C [17] 11.3% | viability, T/C [18] 3.23% | viability, T/C [21] 7.8% | viability, T/C [22] 2.22% | viability, T/C [24] 10.4% | viability, T/C [25] 3.52% | viability, T/C [26] 1.46% | viability, T/C [28] 8.51% | viability, T/C [29] 3.03% | viability, T/C [30] 1.17%

CCc1c2c(nc3ccc(O)cc13)-c1cc3c(c(=O)n1C2)COC(=O)[C@]3(O)CC + CCn1c(-c2cccnc2C(C)OC)c2c3cc(ccc31)N1CCOC(CC(NC(=O)C(C(C)C)N(C)C(=O)C3(F)CCN(C(=O)C#CC(C)(C)N(C)C)CC3)C(=O)N3CCCC(N3)C(=O)OCC(C)(C)C2)C1
3.8 nM: IC50 [4]
5.13 nM: IC50 [1]
3.54 nM: IC50 [5]
active: viability, T/C (second compound 0.000949 µM, first compound 0.0949 µM) 7.77% | viability, T/C (second compound 0.000949 µM, first compound 0.3 µM) 6.78% | viability, T/C (second compound 0.003 µM, first compound 0.0949 µM) 6.86% | viability, T/C (second compound 0.003 µM, first compound 0.3 µM) 5.62% | viability, T/C (second compound 0.00949 µM, first compound 0.0949 µM) 6.64% | viability, T/C (second compound 0.00949 µM, first compound 0.3 µM) 7.62% | viability, T/C (second compound 0.03 µM, first compound 0.0949 µM) 7.6% | viability, T/C (second compound 0.03 µM, first compound 0.3 µM) 5.55% | viability, T/C (second compound 0.0949 µM, first compound 0.0949 µM) 6.88% | viability, T/C (second compound 0.0949 µM, first compound 0.3 µM) 5.75% | viability, T/C (second compound 0.3 µM, first compound 0.03 µM) 7.15% | viability, T/C (second compound 0.3 µM, first compound 0.0949 µM) 8.16% | viability, T/C (second compound 0.3 µM, first compound 0.3 µM) 5.2%
2.75 nM: IC50 [6]
4.91 nM: IC50 [2]
inactive: viability, T/C (second compound 0.000949 µM, first compound 0.000949 µM) 103% | viability, T/C (second compound 0.000949 µM, first compound 0.003 µM) 66.7% | viability, T/C (second compound 0.000949 µM, first compound 0.00949 µM) 31.6% | viability, T/C (second compound 0.000949 µM, first compound 0.03 µM) 10.2% | viability, T/C (second compound 0.003 µM, first compound 0.000949 µM) 92.2% | viability, T/C (second compound 0.003 µM, first compound 0.003 µM) 64.1% | viability, T/C (second compound 0.003 µM, first compound 0.00949 µM) 31.5% | viability, T/C (second compound 0.003 µM, first compound 0.03 µM) 11.2% | viability, T/C (second compound 0.00949 µM, first compound 0.000949 µM) 91.5% | viability, T/C (second compound 0.00949 µM, first compound 0.003 µM) 58.2% | viability, T/C (second compound 0.00949 µM, first compound 0.00949 µM) 30.2% | viability, T/C (second compound 0.00949 µM, first compound 0.03 µM) 11.7% | viability, T/C (second compound 0.03 µM, first compound 0.000949 µM) 88.5% | viability, T/C (second compound 0.03 µM, first compound 0.003 µM) 55.3% | viability, T/C (second compound 0.03 µM, first compound 0.00949 µM) 28.3% | viability, T/C (second compound 0.03 µM, first compound 0.03 µM) 9.56% | viability, T/C (second compound 0.0949 µM, first compound 0.000949 µM) 77.6% | viability, T/C (second compound 0.0949 µM, first compound 0.003 µM) 52.6% | viability, T/C (second compound 0.0949 µM, first compound 0.00949 µM) 29.5% | viability, T/C (second compound 0.0949 µM, first compound 0.03 µM) 8.59% | viability, T/C (second compound 0.3 µM, first compound 0.000949 µM) 65.3% | viability, T/C (second compound 0.3 µM, first compound 0.003 µM) 48.6% | viability, T/C (second compound 0.3 µM, first compound 0.00949 µM) 20.1%
4.21 nM: IC50 [3]

CC(C)n1nc(-c2ccc3oc(N)nc3c2)c2c(N)ncnc21
28.7 nM [middle of 4 runs]: IC50 (curve of compound)
inactive: viability, T/C (compound 0.000316 µM) 112% [middle of 4 runs] | viability, T/C (compound 0.001 µM) 95.8% [middle of 4 runs] | viability, T/C (compound 0.00316 µM) 96.8% [middle of 4 runs] | viability, T/C (compound 0.01 µM) 73.3% [middle of 4 runs] | viability, T/C (compound 0.0316 µM) 48.5% [middle of 4 runs] | viability, T/C (compound 0.1 µM) 20.9% [middle of 4 runs]

CCC(CC)c1cc(NC2CCC(N)C2)n2nccc2n1 (stereo not drawn) + CCn1c(-c2cccnc2C(C)OC)c2c3cc(ccc31)N1CCOC(CC(NC(=O)C(C(C)C)N(C)C(=O)C3(F)CCN(C(=O)C#CC(C)(C)N(C)C)CC3)C(=O)N3CCCC(N3)C(=O)OCC(C)(C)C2)C1
748 nM: IC50 [5]
415 nM: IC50 [6]
inactive: viability, T/C [7] 124% | viability, T/C [8] 105% | viability, T/C [9] 101% | viability, T/C [10] 57.4% | viability, T/C [11] 109% | viability, T/C [12] 106% | viability, T/C [13] 103% | viability, T/C [14] 54% | viability, T/C [15] 103% | viability, T/C [16] 100% | viability, T/C [17] 101% | viability, T/C [18] 48.5% | viability, T/C [19] 108% | viability, T/C [20] 109% | viability, T/C [21] 102% | viability, T/C [22] 51.9% | viability, T/C [23] 94.9% | viability, T/C [24] 105% | viability, T/C [25] 80.4% | viability, T/C [26] 40.9% | viability, T/C [27] 83.5% | viability, T/C [28] 72.2% | viability, T/C [29] 59.9% | viability, T/C [30] 22.7%
968 nM: IC50 [3]
active: viability, T/C (second compound 0.000949 µM, first compound 3.16 µM) 1.07% | viability, T/C (second compound 0.000949 µM, first compound 10 µM) 0.23% | viability, T/C (second compound 0.003 µM, first compound 3.16 µM) 0.85% | viability, T/C (second compound 0.003 µM, first compound 10 µM) 0.65% | viability, T/C (second compound 0.00949 µM, first compound 3.16 µM) 1.54% | viability, T/C (second compound 0.00949 µM, first compound 10 µM) 0.27% | viability, T/C (second compound 0.03 µM, first compound 3.16 µM) 0.7% | viability, T/C (second compound 0.03 µM, first compound 10 µM) 0.63% | viability, T/C (second compound 0.0949 µM, first compound 3.16 µM) 0.82% | viability, T/C (second compound 0.0949 µM, first compound 10 µM) 0.45% | viability, T/C (second compound 0.3 µM, first compound 3.16 µM) 1.27% | viability, T/C (second compound 0.3 µM, first compound 10 µM) 0.27%
1040 nM: IC50 [4]
1120 nM: IC50 [1]
1090 nM: IC50 [2]
